According to ChEMBL document CHEMBL6109105, “Design, synthesis and antibacterial evaluation of oxazolidinone derivatives containing N-methylglycyl or quaternary ammonium salts” (Bioorg Med Chem, 2025):
Values after ≈ are worked out from the molar mass of the structure shown. Active and inactive are the calls of the source. No cut-off for these calls is given here.

Columns and labels:
Cell membrane [1] = assay: Induction of cell membrane damage in Enterococcus faecalis assessed as nucleic acid leakage at 32 times of MIC incubated for 2 hrs by fluorescence spectrophotometric analysis; type: subcellular
Cell membrane [2] = assay: Induction of cytoplasmic membrane permeability in Enterococcus faecalis assessed as increase in fluorescence intensity at 8 times of MIC by PI staining based analysis
Enterococcus faecalis [3] = assay: Post-antibiotic affect in Enterococcus faecalis assessed as reduction in growth rate at 8 times of MIC measured after 1 hrs; type: functional, organism-based
[4] = tested on: Stenotrophomonas maltophilia; assay: Antibacterial activity against Stenotrophomonas maltophilia ATCC 17808 assessed as inhibition of bacterial growth incubated for 16 to 18 hrs by microbroth dilution method; type: functional; conditions: time 16-18 hrs, read-out: MIC100
Enterococcus faecalis [5] = assay: Drug resistance, ratio of MIC for Enterococcus faecalis measured after 5 days to MIC for Enterococcus faecalis measured after 16 to 18 hrs; type: functional
HeLa [6] = assay: Cytotoxicity against human HeLa cells assessed as increase in fluorescence intensity at 1 to 16 microg/ml by vesicle leakage assay; type: toxicity, cell-based; conditions: dose 1-16 µg/ml
Enterococcus faecalis [7] = assay: Antibacterial activity against Enterococcus faecalis assessed as inhibition of bacterial growth incubated for 3 hrs in presence of 50% MHB by dilution method; type: functional, organism-based
Enterococcus faecalis [8] = assay: Bactericidal activity against Enterococcus faecalis assessed as reduction in bacterial count at 4 times of MIC measured within 10 hrs by time-kill kinetics analysis; type: functional
Cell membrane [9] = assay: Induction of cell membrane damage in Enterococcus faecalis assessed as nucleic acid leakage at 16 times of MIC incubated for 2 hrs by fluorescence spectrophotometric analysis; type: subcellular
Enterococcus faecalis [10] = assay: Antipersister-activity against in Enterococcus faecalis assessed as log reduction in persistent cells at 32 times of MIC preincubated with 100 times of MIC of rifampicin for 24 hrs followed by compound addition and measured after 8 hrs by drop plate counting method; type: functional
Enterococcus faecalis [11] = assay: Antibacterial activity against Enterococcus faecalis assessed as post-antibiotic effect at 8 times of MIC measured up to 8 hrs; type: functional
Enterococcus faecalis [12] = assay: Antibacterial activity against Enterococcus faecalis ATCC 29212 assessed as inhibition of bacterial growth incubated for 16 to 18 hrs by microbroth dilution method; type: functional; conditions: time 16-18 hrs, read-out: MIC100
Cell membrane [13] = assay: Induction of cytoplasmic membrane depolarization in Enterococcus faecalis assessed as increase in fluorescence intensity by DiSC35 dye based microplate reader analysis
HeLa [14] = assay: Cytotoxicity against human HeLa cells assessed as increase in red fluorescence at 32 microg/ml incubated for 24 hrs by calcein-AM/PI staining based fluorescence microscopic analysis; type: toxicity, cell-based; conditions: dose 32 µg/ml
Enterococcus faecalis [15] = assay: Disruption of preformed biofilm in Enterococcus faecalis assessed as bacterial survival rate at 16 times of MIC measured after 24 hrs relative to control; type: functional
Staphylococcus aureus = assay: Antibacterial activity against Staphylococcus aureus ATCC 29213 assessed as inhibition of bacterial growth incubated for 16 to 18 hrs by microbroth dilution method; type: functional; conditions: time 16-18 hrs, read-out: MIC100
Enterococcus faecalis [16] = assay: Antibacterial activity against Enterococcus faecalis assessed as inhibition of bacterial growth incubated for 16 to 18 hrs in presence of 50% plasma by dilution method; type: functional; conditions: time 16-18 hrs
Enterococcus faecalis [17] = assay: Induction of ROS-dependent oxidative stress in Enterococcus faecalis assessed as decrease in GSH activity at 32 microg/ml (reference value: 1.34 %); type: functional; parameters: scale not given: the % may be the effect or the level left; conditions: dose 32 µg/ml
Enterococcus faecalis [18] = assay: Induction of ROS accumulation in Enterococcus faecalis assessed as fluorescence intensity at 8 times of MIC incubated for 30 mins by DCFH-DA staining based microplate reader analysis; type: functional; conditions: 0.5 h
[19] = Hemolytic activity in sheep RBC assessed as hemolysis incubated for 1 hrs by microplate reader analysis; type: toxicity, cell-based, Ovis aries, Erythrocyte; conditions: sheep red blood cells
Escherichia coli = assay: Antibacterial activity against Escherichia coli ATCC 25922 assessed as inhibition of bacterial growth incubated for 16 to 18 hrs by microbroth dilution method; type: functional; conditions: time 16-18 hrs, read-out: MIC100
Enterococcus faecalis [20] = assay: Antibacterial activity against Enterococcus faecalis assessed as inhibition of bacterial growth at 0.5 times of MIC incubated for 15 days by bacterial resistance development assay; type: functional, organism-based; conditions: time 15.0 day
Enterococcus faecalis [21] = assay: Antibacterial activity against Enterococcus faecalis assessed as inhibition of bacterial growth incubated for 3 hrs in presence of 50% plasma by dilution method; type: functional
Enterococcus faecalis [22] = assay: Disruption of preformed biofilm in Enterococcus faecalis assessed as bacterial survival rate at 32 times of MIC measured after 24 hrs relative to control; type: functional
[23] = Selectivity ratio of MIC for antibacterial activity against Enterococcus faecalis assessed as inhibition of bacterial growth measured after 3 hrs in presence of 50% plasma to MIC for antibacterial activity against Enterococcus faecalis assessed as inhibition of bacterial growth assessed as inhibition of bacterial growth measured after 16 to 18 hrs; type: functional
Enterococcus faecalis [24] = assay: Antibacterial activity against Enterococcus faecalis assessed as post-antibiotic effect at 16 times of MIC measured up to 8 hrs; type: functional
Cell membrane [25] = assay: Induction of cell membrane damage in Enterococcus faecalis assessed as nucleic acid leakage at 8 times of MIC incubated for 2 hrs by fluorescence spectrophotometric analysis; type: subcellular
Enterococcus faecalis [26] = assay: Disruption of preformed biofilm in Enterococcus faecalis assessed as reduction in bacterial density at 32 times of MIC measured after 24 hrs by SYTO 9 staining based confocal laser scanning microscopic analysis; type: functional, organism-based
Enterococcus faecalis [27] = assay: Antibacterial activity against Enterococcus faecalis assessed as inhibition of bacterial growth incubated for 16 to 18 hrs in presence of 50% serum by dilution method; type: functional; conditions: time 16-18 hrs
Enterococcus faecalis [28] = assay: Induction of ROS accumulation in Enterococcus faecalis assessed as increase in fluorescence intensity at 8 times of MIC incubated for 30 mins in presence of NAC by DCFH-DA staining based microplate reader analysis; type: functional, organism-based
Enterococcus faecalis [29] = assay: Post-antibiotic affect in Enterococcus faecalis assessed as reduction in growth rate at 16 times of MIC measured after 1 hrs; type: functional, organism-based
[30] = Hemolytic activity in sheep RBC assessed as hemolysis at 1280 microg/ml incubated for 1 hrs by microplate reader analysis relative to control; type: toxicity, cell-based, Ovis aries, Erythrocyte; conditions: sheep red blood cells, dose 1280 µg/ml, read-out: Activity
Enterococcus faecalis [31] = assay: Antibacterial activity against Enterococcus faecalis assessed as inhibition of bacterial growth incubated for 16 to 18 hrs in presence of 50% MHB by dilution method; type: functional; conditions: time 16-18 hrs
[32] = Cytotoxicity against human HeLa cells assessed as cell viability at 64 microg/ml incubated for 24 hrs by CCK8 assay relative to control; type: toxicity, cell-based; conditions: at 64 µg/mL, read-out: Activity

## CC(=O)NC[C@H]1CN(c2ccc(N3CCN(C(=O)CN(C)Cc4ccc([N+](=O)[O-])cc4)CC3)c(F)c2)C(=O)O1
Cell membrane [1]
  Activity: Active; Small Amount Of Leakage Observed
Cell membrane [2]
  Activity: inactive
Enterococcus faecalis [3]
  Activity: Active
[4]
  MIC: > 128 µg/mL
Enterococcus faecalis [5]
  Ratio: 2
HeLa [6]
  Activity: Non-toxic
Enterococcus faecalis [7]
  Activity: Active
Enterococcus faecalis [8]
  Activity: ~1 10^4CFU/ml
Cell membrane [9]
  Activity: Active; Small Amount Of Leakage Observed
Enterococcus faecalis [10]
  Activity: 3.71 log10CFU/ml
Enterococcus faecalis [11]
  PAE: 0.44 h
Enterococcus faecalis [12]
  MIC: 2 µg/mL (≈ 3.69 µM)
Cell membrane [13]
  Activity: inactive
HeLa [14]
  Activity: Non-toxic
Enterococcus faecalis [15]
  Activity: 0.3%
Staphylococcus aureus
  MIC: 8 µg/mL (≈ 14.7 µM)
Enterococcus faecalis [16]
  MIC: 2 µg/mL
Enterococcus faecalis [17]
  Activity: 45.89%
Enterococcus faecalis [18]
  Flu intensity: 280 a.u.
[19]
  HC50 at 1 h: > 1280 µg/mL
Escherichia coli
  MIC: > 128 µg/mL
Enterococcus faecalis [20]
  Activity: Active
Enterococcus faecalis [21]
  MIC: 8 µg/mL
Enterococcus faecalis [22]
  Activity: 0.04%
[23]
  Selectivity ratio: 4
Enterococcus faecalis [24]
  PAE: 5.13 h
Cell membrane [25]
  Activity: Active; Small Amount Of Leakage Observed
Enterococcus faecalis [26]
  Activity: Active
Enterococcus faecalis [27]
  MIC: 4 µg/mL
Enterococcus faecalis [28]
  Activity: inactive
Enterococcus faecalis [29]
  Activity: Active
[30]
  hemolysis at 1 h, 1280 microg/ml: 3.19%
Enterococcus faecalis [31]
  MIC: 2 µg/mL
[32]
  viability at 24 h, 64 microg/ml: 59.8%
